Data published in patent US10287275B2, “16-member triamilide derivatives and uses thereof” (VICTOR PHARMA CO., LTD. ZHENJIANG, priority 2015, dated 2019).
≈ marks a conversion by molar mass, not a printed value.

Columns and labels:
Type in all cases: cell-based
M. gallisepticum BG44T = experiment: Mycoplasma susceptibility testing (MIC); settings: Mycoplasmoides gallisepticum
Protocol: (§1) The MIC's in Table I and Table II were determined by standard agar-dilution assays or broth-dilution microtiter test.

M. gallisepticum S6 = experiment: Mycoplasma susceptibility testing (MIC); settings: Mycoplasmoides gallisepticum
Protocol: as §1

M. hyorinis BTS-7 = experiment: Mycoplasma susceptibility testing (MIC)
Protocol: as §1

[1] = test system: Actinobacillus pleuropneumoniae serotype 1; experiment: Antibacterial MIC, agar-dilution or broth-dilution microtiter test; settings: Strain A: Actinobacillus pleuropneumoniae serotype 1
Protocol: as §1

[2] = test system: Actinobacillus pleuropneumoniae serotype 7; experiment: as above; settings: Strain B: Actinobacillus pleuropneumoniae serotype 7
Protocol: as §1

[3] = test system: Escherichia coli 25922 (QC strain); experiment: as above; settings: Strain F: Escherichia coli 25922 (QC strain)
Protocol: as §1

Escherichia coli IN-F6-7 = experiment: as above; settings: INF67; Strain E: Escherichia coli IN-F6-7
Protocol: as §1

[4] = test system: Klebsiella pneumoniae 3699; experiment: as above; settings: Strain K: Klebsiella pneumoniae 3699
Protocol: as §1

[5] = test system: Klebsiella pneumoniae 3753; experiment: as above; settings: Strain J: Klebsiella pneumoniae 3753
Protocol: as §1

Pasteurella 8217 = experiment: as above; settings: Strain C: Pasteurella 8217
Protocol: as §1

Pasteurella 8229 = experiment: as above; settings: Strain D: Pasteurella 8229
Protocol: as §1

[6] = test system: Staphylococcus aureus 29213 (QC strain); experiment: as above; settings: Strain H: Staphylococcus aureus 29213 (QC strain)
Protocol: as §1

[7] = test system: Staphylococcus aureus 5-1; experiment: as above; settings: 51; Strain G: Staphylococcus aureus 5-1
Protocol: as §1

[8] = test system: Streptococcus pneumoniae 2349; experiment: as above; settings: Strain L: Streptococcus pneumoniae 2349
Protocol: as §1

[9] = test system: Streptococcus pneumoniae 49619 (QC strain); experiment: as above; settings: Strain M: Streptococcus pneumoniae 49619 (QC strain)
Protocol: as §1

salmonella LD4-8 = experiment: as above; settings: LD48; Strain I: salmonella LD4-8
Protocol: as §1

CC[C@H]1OC(=O)C[C@@H](O)[C@H](C)[C@@H](O[C@@H]2O[C@H](C)[C@@H](O)[C@H](N(C)C)[C@H]2O)[C@@H](CCN2Cc3ccccc3C2)C[C@@H](C)C(=O)/C=C/C(C)=C/[C@@H]1CN1CC(C)CC(C)C1 (stereo partly drawn) [Compound 12d, (4R,5S,6S,7R,9R,11E,13E,15R,16R)-6-(((2R,3R,4S,5S,6R)-4-(dimethylamino)-3,5-dihydroxy-6-methyltetrahydro-2H-pyran-2-yl)oxy)-15-((3,5-dimethylpiperidin-1-yl)methyl)-16-ethyl-4-hydroxy-7-(2-(isoindolin-2-yl)ethyl)-5,9,13-trimethyloxacyclohexadeca-11,13-diene-2,10-dione]
MIC (M. gallisepticum BG44T): < 0.12 µg/mL
MIC (M. gallisepticum S6): < 0.12 µg/mL
MIC (M. hyorinis BTS-7): 3.91 µg/mL (≈ 4.91 µM)

CC[C@H]1OC(=O)C[C@@H](O)[C@H](C)[C@@H](O[C@@H]2O[C@H](C)[C@@H](O)[C@H](N(C)C)[C@H]2O)[C@@H](CCN2CCCCC2)C[C@@H](C)C(=O)/C=C/C(C)=C/[C@@H]1CN(CC)Cc1ccccc1 [Compound 4i, (4R,5S,6S,7R,9R,11E,13E,15R,16R)-15-((benzyl(ethyl)amino)methyl)-6-(((2R,3R,4S,5S,6R)-4-(dimethylamino)-3,5-dihydroxy-6-methyltetrahydro-2H-pyran-2-yl)oxy)-16-ethyl-4-hydroxy-5,9,13-trimethyl-7-(2-(piperidin-1-yl)ethyl)oxacyclohexadeca-11,13-diene-2,10-dione]
MIC (M. gallisepticum BG44T): < 0.12 µg/mL
MIC (M. gallisepticum S6): < 0.12 µg/mL
MIC (M. hyorinis BTS-7): 15.6 µg/mL (≈ 19.9 µM)

CC[C@H]1OC(=O)C[C@@H](O)[C@H](C)[C@@H](O[C@@H]2O[C@H](C)[C@@H](O)[C@H](N(C)C)[C@H]2O)[C@@H](CCN2CCCCC2)C[C@@H](C)C(=O)/C=C/C(C)=C/[C@@H]1CNC1CCCCC1 [Compound 4h, (4R,5S,6S,7R,9R,11E,13E,15R,16R)-15-((cyclohexylamino)methyl)-6-(((2R,3R,4S,5S,6R)-4-(dimethylamino)-3,5-dihydroxy-6-methyltetrahydro-2H-pyran-2-yl)oxy)-16-ethyl-4-hydroxy-5,9,13-trimethyl-7-(2-(piperidin-1-yl)ethyl)oxacyclohexadeca-11,13-diene-2,10-dione]
MIC [1]: 64 µg/mL (≈ 85.6 µM)
MIC [2]: 64 µg/mL (≈ 85.6 µM)
MIC [3]: 16 µg/mL (≈ 21.4 µM)
MIC (Escherichia coli IN-F6-7): 16 µg/mL (≈ 21.4 µM)
MIC [4]: > 256 µg/mL
MIC [5]: 128 µg/mL (≈ 171 µM)
MIC (Pasteurella 8217): 16 µg/mL (≈ 21.4 µM)
MIC (Pasteurella 8229): 2 µg/mL (≈ 2.67 µM)
MIC [6]: 64 µg/mL (≈ 85.6 µM)
MIC [7]: 256 µg/mL (≈ 342 µM)
MIC [8]: 2 µg/mL (≈ 2.67 µM)
MIC [9]: 32 µg/mL (≈ 42.8 µM)
MIC (salmonella LD4-8): 32 µg/mL (≈ 42.8 µM)

CC[C@H]1OC(=O)C[C@@H](O)[C@H](C)[C@@H](O[C@@H]2O[C@H](C)[C@@H](O)[C@H](N(C)C)[C@H]2O)[C@@H](CCN2Cc3ccccc3C2)C[C@@H](C)C(=O)/C=C/C(C)=C/[C@@H]1CN(C)Cc1ccccc1 [Compound 12a, (4R,5S,6S,7R,9R,11E,13E,15R,16R)-15-((benzyl(methyl)amino)methyl)-6-(((2R,3R,4S,5S,6R)-4-(dimethylamino)-3,5-dihydroxy-6-methyltetrahydro-2H-pyran-2-yl)oxy)-16-ethyl-4-hydroxy-7-(2-(isoindolin-2-yl)ethyl)-5,9,13-trimethyloxacyclohexadeca-11,13-diene-2,10-dione]
MIC (M. gallisepticum BG44T): < 0.12 µg/mL
MIC (M. gallisepticum S6): < 0.12 µg/mL
MIC (M. hyorinis BTS-7): 15.6 µg/mL (≈ 19.4 µM)

CC[C@H]1OC(=O)C[C@@H](O)[C@H](C)[C@@H](O[C@@H]2O[C@H](C)[C@@H](O)[C@H](N(C)C)[C@H]2O)[C@@H](CCN2CC(C)CC(C)C2)C[C@@H](C)C(=O)/C=C/C(C)=C/[C@@H]1CN(C)Cc1cccnc1 (stereo partly drawn) [Compound 8b, (4R,5S,6S,7R,9R,11E,13E,15R,16R)-6-(((2R,3R,4S,5S,6R)-4-(dimethylamino)-3,5-dihydroxy-6-methyltetrahydro-2H-pyran-2-yl)oxy)-7-(2-(3,5-dimethylpiperidin-1-yl)ethyl)-16-ethyl-4-hydroxy-5,9,13-trimethyl-15-((methyl(pyridin-3-ylmethyl)amino)methyl)oxacyclohexadeca-11,13-diene-2,10-dione]
MIC (M. gallisepticum BG44T): 0.98 µg/mL (≈ 1.23 µM)
MIC (M. gallisepticum S6): 3.91 µg/mL (≈ 4.89 µM)
MIC (M. hyorinis BTS-7): 125 µg/mL (≈ 156 µM)

CC[C@H]1OC(=O)C[C@@H](O)[C@H](C)[C@@H](O[C@@H]2O[C@H](C)[C@@H](O)[C@H](N(C)C)[C@H]2O)[C@@H](CCN2CCCCC2)C[C@@H](C)C(=O)/C=C/C(C)=C/[C@@H]1CN(Cc1ccccc1)C(C)C [Compound 4j, (4R,5S,6S,7R,9R,11E,13E,15R,16R)-15-((benzyl(isopropyl)amino)methyl)-6-(((2R,3R,4S,5S,6R)-4-(dimethylamino)-3,5-dihydroxy-6-methyltetrahydro-2H-pyran-2-yl)oxy)-16-ethyl-4-hydroxy-5,9,13-trimethyl-7-(2-(piperidin-1-yl)ethyl)oxacyclohexadeca-11,13-diene-2,10-dione]
MIC (M. gallisepticum BG44T): < 0.12 µg/mL
MIC (M. gallisepticum S6): < 0.12 µg/mL
MIC (M. hyorinis BTS-7): 0.49 µg/mL (≈ 0.614 µM)

CC[C@H]1OC(=O)C[C@@H](O)[C@H](C)[C@@H](O[C@@H]2O[C@H](C)[C@@H](O)[C@H](N(C)C)[C@H]2O)[C@@H](CCN2Cc3ccccc3C2)C[C@@H](C)C(=O)/C=C/C(C)=C/[C@@H]1CN(CC)CC [Compound 12c, (4R,5S,6S,7R,9R,11E,13E,15R,16R)-15-((diethylamino)methyl)-6-(((2R,3R,4S,5S,6R)-4-(dimethylamino)-3,5-dihydroxy-6-methyltetrahydro-2H-pyran-2-yl)oxy)-16-ethyl-4-hydroxy-7-(2-(isoindolin-2-yl)ethyl)-5,9,13-trimethyloxacyclohexadeca-11,13-diene-2,10-dione]
MIC (M. gallisepticum BG44T): < 0.12 µg/mL
MIC (M. gallisepticum S6): < 0.12 µg/mL
MIC (M. hyorinis BTS-7): 7.82 µg/mL (≈ 10.3 µM)

CC[C@H]1OC(=O)C[C@@H](O)[C@H](C)[C@@H](O[C@@H]2O[C@H](C)[C@@H](O)[C@H](N(C)C)[C@H]2O)[C@@H](CCN2CCCCC2)C[C@@H](C)C(=O)/C=C/C(C)=C/[C@@H]1CN1CCCC1 [Compound 4d, (4R,5S,6S,7R,9R,11E,13E,15R,16R)-6-(((2R,3R,4S,5S,6R)-4-(dimethylamino)-3,5-dihydroxy-6-methyltetrahydro-2H-pyran-2-yl)oxy)-16-ethyl-4-hydroxy-5,9,13-trimethyl-7-(2-(piperidin-1-yl)ethyl)-15-(pyrrolidin-1-ylmethyl)oxacyclohexadeca-11,13-diene-2,10-dione]
MIC [1]: > 256 µg/mL
MIC [2]: > 256 µg/mL
MIC [3]: > 256 µg/mL
MIC (Escherichia coli IN-F6-7): > 256 µg/mL
MIC [4]: > 256 µg/mL
MIC [5]: > 256 µg/mL
MIC (Pasteurella 8217): 256 µg/mL (≈ 356 µM)
MIC (Pasteurella 8229): 128 µg/mL (≈ 178 µM)
MIC [6]: 256 µg/mL (≈ 356 µM)
MIC [7]: > 256 µg/mL
MIC [8]: 64 µg/mL (≈ 88.9 µM)
MIC [9]: > 256 µg/mL
MIC (salmonella LD4-8): > 256 µg/mL

CC[C@H]1OC(=O)C[C@@H](O)[C@H](C)[C@@H](O[C@@H]2O[C@H](C)[C@@H](O)[C@H](N(C)C)[C@H]2O)[C@@H](CCN2Cc3ccccc3C2)C[C@@H](C)C(=O)/C=C/C(C)=C/[C@@H]1CN1CCCCC1 [Compound 12b, (4R,5S,6S,7R,9R,11E,13E,15R,16R)-6-(((2R,3R,4S,5S,6R)-4-(dimethylamino)-3,5-dihydroxy-6-methyltetrahydro-2H-pyran-2-yl)oxy)-16-ethyl-4-hydroxy-7-(2-(isoindolin-2-yl)ethyl)-5,9,13-trimethyl-15-(piperidin-1-ylmethyl)oxacyclohexadeca-11,13-diene-2,10-dione]
MIC (M. gallisepticum BG44T): < 0.12 µg/mL
MIC (M. gallisepticum S6): < 0.12 µg/mL
MIC (M. hyorinis BTS-7): 3.91 µg/mL (≈ 5.09 µM)

CC[C@H]1OC(=O)C[C@@H](O)[C@H](C)[C@@H](O[C@@H]2O[C@H](C)[C@@H](O)[C@H](N(C)C)[C@H]2O)[C@@H](CCN2CC(C)CC(C)C2)C[C@@H](C)C(=O)/C=C/C(C)=C/[C@@H]1CN(Cc1ccccc1)C(C)C (stereo partly drawn) [Compound 8a, (4R,5S,6S,7R,9R,11E,13E,15R,16R)-15-((benzyl(isopropyl)amino)methyl)-6-(((2R,3R,4S,5S,6R)-4-(dimethylamino)-3,5-dihydroxy-6-methyltetrahydro-2H-pyran-2-yl)oxy)-7-(2-(3,5-dimethylpiperidin-1-yl)ethyl)-16-ethyl-4-hydroxy-5,9,13-trimethyloxacyclohexadeca-11,13-diene-2,10-dione]
MIC (M. gallisepticum BG44T): < 0.12 µg/mL
MIC (M. gallisepticum S6): < 0.12 µg/mL
MIC (M. hyorinis BTS-7): 3.91 µg/mL (≈ 4.73 µM)

CC[C@H]1OC(=O)C[C@@H](O)[C@H](C)[C@@H](O[C@@H]2O[C@H](C)[C@@H](O)[C@H](N(C)C)[C@H]2O)[C@@H](CCN2CC(C)CC(C)C2)C[C@@H](C)C(=O)/C=C/C(C)=C/[C@@H]1CN1Cc2ccccc2C1 (stereo partly drawn) [Compound 8c, (4R,5S,6S,7R,9R,11E,13E,15R,16R)-6-(((2R,3R,4S,5S,6R)-4-(dimethylamino)-3,5-dihydroxy-6-methyltetrahydro-2H-pyran-2-yl)oxy)-7-(2-(3,5-dimethylpiperidin-1-yl)ethyl)-16-ethyl-4-hydroxy-15-(isoindolin-2-ylmethyl)-5,9,13-trimethyloxacyclohexadeca-11,13-diene-2,10-dione]
MIC (M. gallisepticum BG44T): 7.82 µg/mL (≈ 9.82 µM)
MIC (M. gallisepticum S6): 15.6 µg/mL (≈ 19.6 µM)
MIC (M. hyorinis BTS-7): 125 µg/mL (≈ 157 µM)
